Calls of active or inactive are those of the source. The rule behind the calls is not given here.
Each molecule was assayed on Leishmania donovani growth inhibition (assay: antileishmanial activity against L. donovani parasites (AID 1159560);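 note: parasites exposed to compound for 72 h before the viability read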).
`O=C(O)[C@H]1C[C@@H]1c1ccc(-c2ccc(CN(CCc3ccccn3)C(=O)C3CCC3)cc2)cc1` showed an IC50 of 25 µM.
Work on `Cc1nn(C)c(Cl)c1CN(Cc1cccnc1)Cc1ccsc1` yielded an IC50 of 2 µM.
`CCC(=O)Nc1ccc(-c2nc3ccc(Cl)cc3[nH]2)cc1` was tested, and the IC50 was > 50 µM (inactive).
Work on `Cc1ccc(S(=O)(=O)Nc2ccc(CN3CCN(C(=O)c4cccc(C)c4)CC3)cc2)cc1` yielded an IC50 of 25 µM.
Molecule `Cc1nn(C2CCS(=O)(=O)C2)c(C)c1CN(C)C(=O)C=Cc1sc2ccccc2c1Cl` (centres undefined) has an IC50 of 13 µM.
With `O=C(CCCNC(=O)c1ccc(Cl)cc1)Nc1nc(-c2ccccn2)cs1` the IC50 was > 50 µM (inactive).
`COc1cccc(C(=O)[C@H]2C[C@@H]2CN(Cc2cccnc2)Cc2cccnc2)c1` gave an IC50 of 0.16 µM.
With `N#Cc1ccc(S(=O)(=O)N2CCN(Cc3cccc(-c4ccncc4)c3)CC2)cc1` the IC50 was > 50 µM (inactive).
For `CC(C)(C)C(=O)NCCc1csc(-c2ccc(F)cc2)n1`, the IC50 was > 50 µM (inactive).
`NC(=O)c1cc(F)ccc1Nc1nc(NC2CCC(O)CC2)ncc1Cl` (centres undefined) gave an IC50 of 3.2 µM.
`CCN(Cc1cccs1)C(=O)CSc1nnc(-c2ccc3c(c2)OCO3)o1` was tested, and the IC50 was 3.2 µM.
For `COc1ccc(-c2cc(C)no2)cc1S(=O)(=O)Nc1ccc(C)c(C)c1`, the IC50 was 7.9 µM.
Work on `c1ccc(-c2nc(NC3CCCCC3)cc(C3CC3)n2)nc1` yielded an IC50 of 0.79 µM.
For `O=C(CCc1ccc(-c2ccccc2)o1)N1CCN(c2ccc(O)cc2)CC1`, the IC50 was 10 µM.
Work on `COc1cccc2sc(CN(C)C(=O)C3CNCCN3c3ccc(F)cc3)c(C)c12` (centres undefined) yielded an IC50 of 32 µM.
`O=C(NCC1CCCCC1)c1cnns1` showed an IC50 of 13 µM.
Work on `CC(C)(C)C(Cn1ccnc1)NC(=O)c1ccc2nc(C3CC3)oc2c1` (centres undefined) yielded an IC50 of 20 µM.
Molecule `Cc1ccccc1CNc1cc(C2CC2)nc(-c2nccn2C)n1` has an IC50 of 1.6 µM.
In the case of `N#Cc1cccc(CN2CCC(N(Cc3cccnc3)C(=O)c3cc(F)c(F)cc3F)CC2)c1`, the IC50 is reported as > 50 µM (inactive).
With `OCC1CCCCN1c1cc(-c2ccccn2)nc(Nc2ccccc2)n1` (centres undefined) the IC50 was 3.2 µM.
`CCc1cc(C(=O)Nc2nccn2-c2ccccc2)cs1` gave an IC50 of 6.3 µM.
Molecule `Clc1cc(Br)ccc1OCCCCn1ccnc1` has an IC50 of 0.13 µM.
For `CN1CCCN(C(=O)c2ccc(N3CCCC3)cc2Cl)CC1`, the IC50 was 40 µM.
Work on `O=C(NCC(c1cccs1)N1CCOCC1)c1ccc([N+](=O)[O-])o1` (centres undefined) yielded an IC50 of 32 µM.
With `CN1CCC(N(C)c2nccc(N3CCN(C(=O)c4cccc(-c5cccnc5)c4)CC3)n2)CC1` the IC50 was > 50 µM (inactive).
In the case of `CCOC(=O)c1noc(N)c1-c1ccccc1`, the IC50 is reported as > 50 µM (inactive).
`Cc1ccc(Nc2nc(N)nc(CNC(c3nc4ccccc4[nH]3)C(C)C)n2)cc1` (centres undefined) was tested, and the IC50 was 4 µM.
In the case of `O=C1CN(Cc2ccco2)C2CS(=O)(=O)CC2N1c1ccc(Cl)cc1` (centres undefined), the IC50 is reported as > 50 µM (inactive).
`Cc1nn(-c2nc(N)nc(-c3ccccn3)n2)c(C)c1Cc1ccccc1` was tested, and the IC50 was 5 µM.
`O=c1cc(NCCCNCc2c[nH]c3ccc(Br)cc23)[nH]c2ccccc12` was tested, and the IC50 was > 50 µM (inactive).
In the case of `Cc1ccc(C)c(OC2CCN(C(=O)C(C)n3ccnc3)CC2)c1` (centres undefined), the IC50 is reported as 2.5 µM.
For `CCOc1cc(NCCCN2CCN(C)CC2)c2ncccc2c1`, the IC50 was 40 µM.
In the case of `Cc1c(C(C)NC(=O)Nc2cccc(Cl)c2)sc2ncnn12` (centres undefined), the IC50 is reported as 2 µM.
Work on `COc1ccc(S(=O)(=O)Nc2ccccc2OC)cc1NC(=O)CCCc1c[nH]c2ccccc12` yielded an IC50 of 25 µM.
`COc1ccc(Cl)cc1CC(=O)Nc1n[nH]c(-c2ccccn2)n1` was tested, and the IC50 was 4 µM.
In the case of `CNC(=O)Oc1ccc(C(=O)NCc2ccccc2)cc1OC(=O)NC`, the IC50 is reported as > 50 µM (inactive).
`COCCn1c(-c2ccc3c(c2)OCO3)cnc1NCc1ccccc1OC` was tested, and the IC50 was 13 µM.
`Cc1cc(=O)n2nc(Oc3ccc(C#N)cc3Cl)sc2n1` gave an IC50 of 13 µM.
In the case of `Cc1[nH]nc(Nc2ccnc3[nH]ccc23)c1C`, the IC50 is reported as > 50 µM (inactive).
`Cc1cc(Nc2ccc(C#N)c(Cl)c2C)n[nH]1` was tested, and the IC50 was 50 µM.
In the case of `O=C(NCCc1cccnc1)c1ccc(-c2ccccc2F)o1`, the IC50 is reported as 20 µM.
`CCCCNc1nccc(-c2c(-c3ccc(F)cc3)nn3c(N4CCOCC4)cccc23)n1` was tested, and the IC50 was > 50 µM (inactive).
In the case of `O=C(N1CCc2ccccc2CC1)C1(C(=O)N2CCC(n3c(=O)[nH]c4ncccc43)CC2)CC1`, the IC50 is reported as > 50 µM (inactive).
In the case of `CCC(c1ccc(F)cc1)n1cncc1-c1cnn(C)c1` (centres undefined), the IC50 is reported as > 50 µM (inactive).
`CC1CN(Cc2ccc(C#N)cc2)CCN1c1ccc(NC(=O)c2ccccc2F)cc1` (centres undefined) was tested, and the IC50 was 40 µM.
`O=c1cc(NCCCNC2CCOc3c(I)cc(Cl)cc32)[nH]c2ccccc12` (centres undefined) gave an IC50 of 32 µM.
With `O=S1N=C(NCCCN(Cc2ccc(F)cc2)c2ccccn2)C(NCc2ccncc2)=N1` (centres undefined) the IC50 was > 50 µM (inactive).
In the case of `O=C(NCCc1csc(-c2ccc(F)cc2)n1)c1ccco1`, the IC50 is reported as > 50 µM (inactive).
Molecule `Cc1cc(NC(=O)C2CCCCC2)n(-c2nc3c(c(=O)[nH]2)CCC3)n1` has an IC50 of 0.04 µM.
For `O=C(COc1nn(-c2ccccc2)c2ncccc12)NCc1ccccc1`, the IC50 was 0.4 µM.
Molecule `O=C1NCCn2ccc(Nc3nc(NC4CCC(O)CC4)ncc3Cl)c21` (centres undefined) has an IC50 of 2.5 µM.
In the case of `CC(C)Oc1cccc(N2CCC(C(=O)N3CCCN(C(C)C)CC3)CC2)c1`, the IC50 is reported as > 50 µM (inactive).
Molecule `Cc1nn(-c2nc3ccccc3[nH]2)c2c1C(c1ccc(O)cc1)CC(=O)N2` (centres undefined) has an IC50 of 0.79 µM.
In the case of `CC(C(=O)Nc1ccccc1F)N(C)CC(=O)Nc1cccc2ccccc12` (centres undefined), the IC50 is reported as 50 µM.

From PubChem BioAssay AID1159560 (GlaxoSmithKline (GSK), 2015)
